The source of these data is patent US4188402A, “Derivatives of the D-threo-1-phenyl-2-trifluoroacetamido-1,3-propandediol” (Clesa S.p.A., priority 1977, dated 1980).

In brackets after ≈: the same amount, converted by molar mass.

For orientation: ED50 means the dose that gives a 50% effect, or the effect in half of the subjects. The low end stands for an effect at a small dose, the high end for a need for a large dose. The MIC is the smallest concentration in the dilution series that meets the test's criterion for growth inhibition.

Data set [1] deals with multocide NCTC 10722 Pasteurella. Nature of the data set: PD50 in experimental infection of the mouse by intraperitoneal inoculation (Table 3). The format is in vivo. As to conditions: 120 h, treatment time 5 days, about 100 times the lethal amount at 50% i.p., Spearman-Karber. From the text:
The study of the antibiotic activity of the derivatives of the present invention was completed by the determination of PD50 in experimental infections from multocide NCTC 10722 Pasteurella induced in the mouse by intraperitoneal inoculation of a bacterial amount equal to about 100 times the lethal amount at 50%. The determination of PD50 relating to the examined derivatives has been carried out according to the method of Spearman-Karber (L. Cavalli-Sforza "Analisi statistica per medici e biologi e analisi del dosaggio biologico"--Ed. Universitarie Boringhieri--Torino--1961, pages 173-175).

A short description of data set [2]: Hydrolysis of the esters in the animal organism. The format is in vivo. As to conditions: ester at the alcoholic function.
The subject of data set [3] is grampositive and gram-negative microorganisms as well as Proteus. Nature of the data set: Antibacterial activity of the esterified derivatives compared with Z 2100. As to conditions: after hydrolysis in the animal organism. The protocol:
(§1) Insofar as the study of the antibacterial activity spectrum is concerned, this was performed by using the method of agar dilutions in a double series. The minimum inhibitory concentration (MIC) was performed against grampositive and gram-negative microorganisms as well as Proteus.

The test system of the next data set is E. Coli K12. Kind of data set: MIC, agar dilutions in a double series, in vitro (Table 2). As to conditions: Escherichia coli, E. Coli K12, agar dilution. The format is cell-based. The protocol:
as §1

Data set [4] deals with Past. multocide NCTC 10722. Described as above. The format is cell-based. As to conditions: Past. multocide NCTC 10722, agar dilution. Here is the method: as §1
For orientation: Agar dilution tests growth on a series of plates holding different concentrations.

The subject of a further data set is Proteus morgani N 520. Described as above. The format is cell-based. As to conditions: Proteus morgani N 520, agar dilution. Here is the method: as §1
The next data set has as its system S. aureus Oxford. The description is as above. It is filed as cell-based. Conditions: Staphylococcus aureus, agar dilution. Here is the method: as §1
The subject of the next data set is Salmonelli Typhi M-VI. The data set is described as above. The format is cell-based. Here is the method: as §1
The test system of the next data set is Strep. agalactiae 4 b. The data set is described as above. As to conditions: Streptococcus agalactiae, agar dilution. It is filed as cell-based. Here is the method:
as §1

For data set [5], the system named is Strep. faecalis ATCC 10541. Described as above. The format is cell-based. As to conditions: Enterococcus faecalis, ATCC10541, Strep. faecalis ATCC 10541, agar dilution. Here is the method:
as §1

The test system of data set [6] is Staphylococcus albus 1238. Nature of the data set: MIC in vitro against thiamphenicol-resistant strain. It is filed as cell-based. Conditions: Staphylococcus albus 1238, thiamphenicol-resistant. The source says:
(§2) Furthermore, the compounds of the present invention show a certain bacterial activity, both "in vitro" and in the presence of rabbit serum, in respect of some microorganism strains resistant against thiamphenicol (ie., […]; see Merck Index Ninth Edition, page 9034) as it appears from the following results: […]

Data set [7] relates to Staphylococcus aureus 4180. The data set is described as above. Conditions: Staphylococcus aureus 4180, thiamphenicol-resistant. It is filed as cell-based.
From the text: as §2

The subject of data set [8] is Streptococcus faecalis Z 20. The description is as above. The format is cell-based. Conditions: Enterococcus faecalis, Z20, Streptococcus faecalis Z 20, thiamphenicol-resistant.
From the text: as §2

The test system of data set [9] is Streptococcus faecalis Z 61. Described as above. The format is cell-based. As to conditions: Enterococcus faecalis, Z61, Streptococcus faecalis Z 61, thiamphenicol-resistant.
From the text: as §2

The test system of data set [10] is Pseudomonas aeruginosa 50541. Kind of data set: MIC in culture broth, in the presence of rabbit serum, against thiamphenicol-resistant strain. It is filed as cell-based. Conditions: Pseudomonas aeruginosa 50541, thiamphenicol-resistant. From the text: (§3) Furthermore, the compounds of the present invention show a certain bacterial activity, both "in vitro" and in the presence of rabbit serum, in respect of some microorganism strains resistant against thiamphenicol (ie., […]; see Merck Index Ninth Edition, page 9034) as it appears from the following results:
(§4) ** = tests carried out in culture broth, in the presence of rabbit serum.

A further data set relates to Streptococcus faecalis. The description is as above. It is filed as cell-based. As to conditions: Enterococcus faecalis.
From the text: as §3, §4

For the next data set, the system named is Shighelli Boydii 4. Nature of the data set: MIC, agar dilutions in a double series, in vitro (Table 2). The format is cell-based. Conditions: Shighelli Boydii 4, agar dilution. Here is the method:
as §1

`CCCCCCCCCCCCCCCC(=O)OC[C@@H](NC(=O)C(F)(F)F)[C@H](O)c1ccc(S(C)(=O)=O)cc1` [Z 2112, D-(+)-threo-1-(p-methanesulphonylphenyl)-2-trifluoroacetamido-3-palmitoyloxy-1-propanol]: it took a dose of 21 mg/kg to reach the 50% effect level in data set [1] (NCTC10722, po, per os) (ED50). Further, the “hydrolysis in the animal organism” value in data set [2] is on record as “quickly hydrolyzed in the animal organism”. In addition, the “activity relative to Z 2100” value in data set [3] is given as “show the same activity as Z 2100”.

For `CS(=O)(=O)c1ccc([C@@H](O)[C@@H](CO)NC(=O)C(F)(F)F)cc1` [Z 2100, D-(+)-threo-1-(p-methanesulphonylphenyl)-2-trifluoroacetamido-1,3-propanediol], the MIC in the data set with E. Coli K12 was determined as 64 µg/mL (≈ 188 µM); in [4] it was 2 µg/mL (≈ 5.86 µM); with Proteus morgani N 520, 8 µg/mL (≈ 23.4 µM); against S. aureus Oxford it was 16 µg/mL (≈ 46.9 µM); against Salmonelli Typhi M-VI, 32 µg/mL (≈ 93.8 µM); in the data set on Strep. agalactiae 4 b, 16 µg/mL (≈ 46.9 µM). Moreover, the MIC worked out at 8 µg/mL (≈ 23.4 µM) in data set [5]; 40 µg/mL (≈ 117 µM) in data set [6]; 40 µg/mL (≈ 117 µM) in data set [7]; 40 µg/mL (≈ 117 µM) in [8]; 80 µg/mL (≈ 234 µM) in [9]; 80 µg/mL in [10]. In the data set with Streptococcus faecalis, the minimal inhibitory concentration (MIC) came out at 80 µg/mL. Also, the ED50 in [1] (NCTC10722, po, per os) stood at 19 mg/kg.

Consider `CS(=O)(=O)c1ccc([C@@H](O)[C@@H](COC(=O)CN)NC(=O)C(F)(F)F)cc1` [Z 2117, D-(+)-threo-1-(p-methanesulphonylphenyl)-2-trifluoroacetamido-3-aminoacetoxy-1-propanol], for which, in data set [1] (NCTC10722, sc, subcutaneous), the median effective dose (ED50) turned out to be 14.3 mg/kg. In addition, the “hydrolysis in the animal organism” value in data set [2] is listed as “quickly hydrolyzed in the animal organism”. Moreover, the “activity relative to Z 2100” value in data set [3] is “show the same activity as Z 2100”.

As for `CSc1ccc([C@@H](O)[C@@H](CO)NC(=O)C(F)(F)F)cc1` [Z 2109, D-(-)-threo-1-(p-methylmercaptophenyl)-2-trifluoroacetamido-1,3-propanediol], the MIC was 16 µg/mL (≈ 51.7 µM) in the data set with E. Coli K12; 4 µg/mL (≈ 12.9 µM) in data set [4]; 4 µg/mL (≈ 12.9 µM) against Proteus morgani N 520; 32 µg/mL (≈ 103 µM) in the data set with S. aureus Oxford; 64 µg/mL (≈ 207 µM) with Salmonelli Typhi M-VI; 32 µg/mL (≈ 103 µM) against Shighelli Boydii 4. Further, the MIC worked out at 64 µg/mL (≈ 207 µM) against Strep. agalactiae 4 b and 32 µg/mL (≈ 103 µM) in [5]. The molecule further showed an ED50 in [1] (NCTC10722, po, per os) of 16.6 mg/kg.

On to `CS(=O)(=O)c1ccc([C@@H](O)[C@@H](CO)NC(=O)C(Cl)Cl)cc1` [Thiamphenicol, reference compound], for which the MIC amounted to 160 µg/mL (≈ 449 µM) in data set [6]; 160 µg/mL (≈ 449 µM) in data set [7]; 160 µg/mL (≈ 449 µM) in data set [8]; 160 µg/mL (≈ 449 µM) in data set [9]; 160 µg/mL in [10]; 320 µg/mL in the data set on Streptococcus faecalis.
